# Reference: patent US20250051324A1, “PARP INHIBITOR, PHARMACEUTICAL COMPOSITION COMPRISING SAME, AND USE THEREOF” (KEYTHERA (SUZHOU) BIO-PHARMACEUTICALS CO., LIMITED, priority 2021, published 2025)
# Read-outs that look alike come from different tables or passages of the source.
# Legend:
# [1] = target: PARP2 (Homo sapiens (Human), UniProt Q9UGN5); assay: PARP2 trapping assay; type: biochemical; details: read-out: Inhibitory Effect on PARP2 Trapping IC50
# Method: [table] […] 1. A 4× enzyme reaction mixture, comprising PARP1, PARP2, and GST-Tb antibody, was prepared with the buffer and 4 μL of the enzyme reaction mixture was added to a 384-well plate. 2. A 4×PARP1 and PARP2 probe reaction mixture was prepared with the buffer and 4 μL of the probe reaction mixture was added to the 384-well plate. 3. A series of gradient-diluted compounds were prepared and 4 μL of the diluted compounds were added to the 384-well plate, and incubated at room temperature for 45 minutes. 4. After incubation, 4 μL of 4×NAD reaction mixture was added to the 384-well plate and incubated at room temperature for 10 minutes. 5. After incubation, the plate was read using a plate reader. 6. Data Analysis: The percentage inhibition rate was calculated as follows: Inhibition Rate (%)=(Reading of Compound Group−Reading of Blank Group)/(Reading of Vehicle Control Group−Reading of Blank Group).
# [2] = system: UWB1.289 ovarian cancer cells; assay: Cell proliferation assay, UWB1.289; type: cell-based; details: UWB1289, 168 h, read-out: UWB1.289 Cell IC50
# Method: Experimental Materials: MDA-MB-436 or UWB1.289 cell lines were purchased from Cobioer Biosciences Co. Ltd. (Nanjing, China). The STR identification results were a complete match, and mycoplasma testing was negative. MDA-MB-436 cells were cultured in DMEM complete medium containing 10% fetal bovine serum, 1% penicillin-streptomycin, 1% insulin, and 16 μg/mL glutathione; UWB1.289 cells were cultured in RMPI1640 complete medium containing 10% fetal bovine serum and 1% penicillin-streptomycin.
# 1. MDA-MB-436 or UWB1.289 cells were cultured in the aforementioned medium (culture conditions: 37° C., 5.0% CO2 in air) until they reached the logarithmic growth phase. The cells were then digested with trypsin containing 0.25% EDTA, centrifuged at 1000 rpm, and the supernatant was discarded. Cell culture medium was added, and the cell suspension was adjusted to 2×10^4/mL after counting. 135 μL of the cell suspension per well was taken and cultured in a 96-well cell culture plate for 16 hours (culture conditions: 37° C., 5.0% CO2 in air).
# 2. The test compounds, stored at a concentration of 10 mM, were diluted 2.5 times with DMSO and then serially diluted in a 1:3 gradient (9 gradients). The gradient-diluted samples were further diluted 40 times with serum-free medium, and 15 μL of each was added to the 96-well cell culture plate. The positive control group received serum-free medium containing the same concentration of DMSO, and the negative control group received medium without cells. The cells were then cultured for an additional 7 days.
# 3. After the culture period, the cell culture plate was placed at room temperature for 30 minutes. Then, 100 μL of CellCounting-Lite 2.0 reagent (Vazyme, #DD1101) was added to each well, mixed thoroughly, and incubated in the dark at room temperature for 10 minutes. The luminescence signal was read using a Synergy HTX multi-mode reader.
# 4. Data analysis was performed using GraphPad Prism 8.0 software. The inhibition rate (%) was calculated as 100*(average luminescence signal of the positive control group−luminescence signal of the compound)/(average luminescence signal of the positive control group−average luminescence signal of the negative control group). The IC50 value was obtained by plotting the logarithm of the compound concentration against the percentage inhibition rate.
# [3] = system: breast cancer BR-05-0044E; type: in vivo, mouse; details: for Tumor Growth Inhibition Rate (TGI): 21 days
# Method: Test Objective: The in vivo efficacy of the test compound was evaluated in a subcutaneous xenograft tumor model of breast cancer BR-05-0044E in NOD SCID mice.
# Experimental Animals: Female NOD SCID mice, 6-8 weeks old, weighing 18-20 grams were provided by Beijing Charles River Laboratory Animal Technology Co., Ltd. The animals were acclimated in the experimental environment for 3-7 days before the experiment. The animals were housed in SPF-grade animal rooms in IVC cages (individually ventilated cages) with 4 mice per cage. All cages, bedding, and drinking water were sterilized before use. Cages, feed, and water were changed twice a week. The housing environment and lighting conditions were as follows: temperature: 20-26° C., humidity: 40-70%, light cycle: 12 hours light, 12 hours dark.
# PDX Model Establishment: The human breast cancer BR-05-0044E model was initially derived from clinical samples surgically removed. After tumor tissue was expanded in mice, 20-30 mm^3 BR-05-0044E tumor tissue blocks were subcutaneously implanted into the right flank of each mouse. Tumor growth was monitored, and when the average tumor volume reached approximately 150-200 mm^3, the mice were randomly grouped for administration. Animals were weighed, and tumor volume was measured before administration. Random grouping was based on tumor volume (random block design).
# Experimental Groups: The experiment was divided into the following groups: 1. Vehicle control group, 2. Compound 1 0.1 mg/kg, 3. Compound 1 0.3 mg/kg, 4. Compound 1 1.0 mg/kg. All groups were administered orally by gavage once daily. Routine checks included observing tumor growth and the impact of drug treatment on the animals' daily behavior (such as activity, food and water intake, body weight changes (measured twice a week), appearance, or other abnormalities). The animal number of deaths and side effects in each group were recorded.
# Experimental Indicators: The experimental indicators were to assess whether tumor growth was inhibited, delayed, or cured. Tumor diameter was measured twice a week with calipers. Tumor volume was calculated using the formula: V=0.5a×b^2, where a and b represent the tumor's length and width, respectively.
# The efficacy of the compound on inhibiting tumor was evaluated by tumor volume and tumor growth inhibition rate (TGI). TGI (%) was calculated as follows: TGI (%)={1−(Average Tumor volume at end of administration in treatment group−Average Tumor volume at start of administration in treatment group)/(Average Tumor volume at end of administration in vehicle control group−Average Tumor volume at start of administration in vehicle control group)}×100%.
# [4] = system: peripheral blood reticulocytes; assay: Effect of compound on rat reticulocytes; type: in vivo; details: 4 days
# Method: Test Objective: The effect of the compound on peripheral blood reticulocytes was evaluated to determine its impact on bone marrow hematopoietic function.
# Test Compounds: Olaparib, Compound 1
# Experimental Animals: Male Sprague Dawley rats were purchased from Beijing Charles River Laboratory Animal Technology Co., Ltd. Housing and Management: The experimental animals were housed in SPF-grade, temperature- and humidity-controlled clean rooms, using individually ventilated cages (IVC) with no more than 5 rats per cage. Temperature/humidity was controlled within the range of (23±3)° C./40-70%. Feed and water: SPF-grade rat feed, sterilized by cobalt-60 irradiation. Drinking water was ultrafiltered and autoclaved. Animals had free access to sterile food and water. Animal identification: ear tags.
# Experimental Method: The experiment was divided into the following 5 groups: vehicle control group; Olaparib 100 mg/kg; Compound 1 0.1 mg/kg; Compound 1 0.3 mg/kg; and Compound 1 1.0 mg/kg. All treatments were administered orally by gavage once daily for 4 days. Blood samples were collected before and after treatment to measure peripheral blood reticulocyte counts.
# Sequence of PARP2 (Q9UGN5 whole entry): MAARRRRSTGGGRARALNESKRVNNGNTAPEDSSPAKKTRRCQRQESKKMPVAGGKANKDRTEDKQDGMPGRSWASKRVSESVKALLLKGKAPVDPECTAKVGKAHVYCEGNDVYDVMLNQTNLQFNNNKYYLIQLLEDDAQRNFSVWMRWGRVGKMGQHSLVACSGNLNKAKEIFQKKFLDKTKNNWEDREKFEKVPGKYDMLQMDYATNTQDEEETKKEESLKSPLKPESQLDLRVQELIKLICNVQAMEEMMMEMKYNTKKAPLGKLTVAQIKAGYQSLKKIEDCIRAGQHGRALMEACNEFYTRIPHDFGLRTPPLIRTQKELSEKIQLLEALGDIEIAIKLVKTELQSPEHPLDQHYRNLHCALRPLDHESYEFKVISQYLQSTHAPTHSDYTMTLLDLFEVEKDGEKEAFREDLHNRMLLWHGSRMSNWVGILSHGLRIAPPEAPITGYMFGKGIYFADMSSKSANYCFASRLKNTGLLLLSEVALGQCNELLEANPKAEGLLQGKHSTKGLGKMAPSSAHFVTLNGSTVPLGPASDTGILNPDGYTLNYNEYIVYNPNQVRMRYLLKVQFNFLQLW
structure (smiles),measurement,setting,value
"CNC(=O)c1ccc(N2CCN(Cc3cnc4c(C)c(C(F)(F)F)c(=O)[nH]c4c3)CC2)cn1 [Compound 1, N-methyl-5-(4-((8-methyl-6-oxo-7-(trifluoromethyl)-5,6-dihydro-1,5-naphthyridin-3-yl)methyl)piperazin-1-yl)picolinamide]",IC50,[1],164 nM
same,IC50,[2],0.66 nM
same,Tumor Growth Inhibition Rate (TGI),[3]; 0.1 mg/kg oral once daily,105%
same,Tumor Growth Inhibition Rate (TGI),[3]; 0.3 mg/kg oral once daily,106%
same,Tumor Growth Inhibition Rate (TGI),[3]; 1.0 mg/kg oral once daily,107%
same,Body weight vs vehicle control group,"[3]; mouse, in vivo",no significant difference
same,Reticulocyte Inhibition Rate,[4]; 0.1 mg/kg oral once daily,12.2%
same,Reticulocyte Inhibition Rate,[4]; 0.3 mg/kg oral once daily,33.8%
same,Reticulocyte Inhibition Rate,[4]; 1.0 mg/kg oral once daily,41.9%
same,Effect on peripheral blood reticulocytes (in words),"[4]; 0.1, 0.3 and 1.0 mg/kg, p>0.05",no significant effect
